Results from US7371871B2, “Inhibitors of glutaminyl cyclase” (Probiodrug AG, priority 2003, dated 2008).

Columns and labels:
human QC [1] = molecular target: T1, human QC (Homo sapiens, UniProt Q16769); conditions: Busby, W. H. J. et al. 1987; cited from earlier work
human QC [2] = molecular target: T1, human QC; assay: Inhibitor assay of glutaminyl cyclase (QC), determination of Ki-values; conditions: for inhibition of human QC (in words): Example 5
Protocol: Excitation/emission wavelengths were 320/410 nm. The assay reactions were initiated by addition of glutaminyl cyclase.
Reactions were carried out at 30° C. utilizing the NOVOStar reader for microplates (BMG labtechnologies). […] Excitation/emission wavelengths were 380/460 nm. The assay reactions were initiated by addition of glutaminyl cyclase. […] The kinetic data were evaluated using GraFit sofware.
The initial velocities were evaluated and the enzymatic activity was determined from a standard curve of ammonia under assay conditions. All samples were measured at 30° C., using either the [sequence]luor Plus or the Sunrise (both from TECAN) reader for microplates. Kinetic data was evaluated using GraFit software.
For inhibitor testing, the sample composition was the same as described above, except of the putative inhibitory compound added. […] For detailed investigations of the inhibition and determination of Ki-values, influence of the inhibitor on the auxiliary enzymes was investigated first.

T1 sequence (Q16769 29-361): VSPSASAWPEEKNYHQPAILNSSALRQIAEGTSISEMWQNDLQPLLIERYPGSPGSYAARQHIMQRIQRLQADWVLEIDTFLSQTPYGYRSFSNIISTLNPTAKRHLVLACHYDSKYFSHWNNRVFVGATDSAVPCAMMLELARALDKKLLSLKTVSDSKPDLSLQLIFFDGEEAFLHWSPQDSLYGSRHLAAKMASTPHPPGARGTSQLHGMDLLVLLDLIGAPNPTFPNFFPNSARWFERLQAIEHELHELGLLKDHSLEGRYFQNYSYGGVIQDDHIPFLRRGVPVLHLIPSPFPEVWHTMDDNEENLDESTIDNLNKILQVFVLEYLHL

Compound | inhibition of human QC detected (human QC [1]) | inhibition of human QC (in words) (human QC [2]) | other results
c1cnc2c(c1)ccc1cccnc12 [1,10-phenanthroline] | inhibition | – | –
Cn1cnc(CCN)c1 [1-methyl-4-(β-amino-ethyl)-imi-dazole] | – | complete loss of inhibitory activity | –
c1ccc(-n2ccnc2)cc1 [1-phenylimidazole] | – | inactive | –
CC(=O)c1ccc(NC(=S)NCCCn2ccnc2)cc1 [Example 9] | – | – | Ki (human QC [2]): 1790 nM
reduced 6-methylpterin | inhibition | – | –
